We go through one compound from publication PMC8009417, “Selective killing of homologous recombination-deficient cancer cell lines by inhibitors of the RPA:RAD52 protein-protein interaction” (PLoS ONE, 2021).

The structures appear in SMILES notation. pEC50: −log10 of the molar value.

Experiment [1] relates to PARPi-resistant UWB1.289.SYr12 cells. As to the kind of experiment: Cell viability assay (PrestoBlue, 72 h), UWB1.289.SYr12. The settings on record: Homo sapiens, estimated from the graphs. It counts as cell-based. From the text: BRCA1-deficient UWB1.289 cells corrected with wild-type BRCA1 gene (BRCA1+; closed triangle) and parental BRCA1-deficient UWB1.289 (BRCA1-; closed circle). Two PARPi-resistant cell lines derived from UWB1.289, UWB1.289.SYr12 (closed diamond) and UWB1.SYr13 (X), were also examined.
UWB1.289 (a gift from Dr. Lee Zou, Harvard Medical School, Boston, MA) were derived from a serous ovarian carcinoma with a germline BRCA1 mutation and a deletion of the wild-type allele. […] Two PARP-resistant cell lines, SYr12 and SYr13, were derived from the UWB1.289. The Mammary Epithelial growth media, along with SupplementMix solution for UWB1 cell lines, were obtained from PromoCell GmbH and mixed as described.
(§1) Cells were seeded 5 x 10^3 cells per well in 96-well plates in a 90 μL volume per well one day before treatment. Cells in 96-well plates were incubated with increasing concentrations of the compound or vehicle control (1% DMSO) for 72 hours. Each treatment plate contained nine concentrations of a compound in sextuplicate. Growth inhibition was determined using PrestoBlue reagent (Life Technologies, #A13261). Fluorescent measurements were taken using a Spectramax M5 plate reader (MDS). To assess cells’ replication in the absence of compounds as a control, six wells on each plate were treated with vehicle to be read in triplicate at the initial treatment day (T0) and at 72-hour read (T100).

Experiment [2] has as its system homologous recombination (HR) in U2OS-DR cells. Kind of experiment: Cell-based DSB repair assay, HR (DR-GFP reporter, FACS). The settings on record: 4 nM, 2 h pre-treatment, three days. How it is done: (A) The effect of mitoxantrone (MX) on SSA and HR were studied with cell-based DSB repair assays. U2OS-SA and U2OS-DR cells were pre-treated with mitoxantrone for two hours before transfection of the SceI-expression plasmid. Then cells were grown in the presence of mitoxantrone for three days. DSB repair activities were determined by (B) FACS analysis. […] U2OS-SA cells were pre-treated with indicated concentrations of mitoxantrone for two hours, before I-SceI-expression vector transfection. After 72 hours incubation, the cells were harvested, and lysates were prepared. Lysate from each treatment was analyzed by 12% SDS-PAGE and the expression levels of I-SceI was determined by the western blot using anti-HA antibody. The p70 of RPA was used as a loading control. Ratios of I-SceI to p70 was obtained with ImageJ and are shown at the bottom of the image. C: control experiment without the addition of mitoxantrone. (D, E) Analysis of DSB repair activiies by western blots. […] At least three independent experiments were performed. Error bars represent standard deviations.

The subject of experiment [3] is BRCA1-deficient HCC1937 breast cancer cells (empty vector, BRCA1-). Kind of experiment: Cell viability assay (PrestoBlue, 72 h), HCC1937 with empty vector. It counts as cell-based. The following applies: Homo sapiens, estimated from the graphs. The procedure:
Fig 2 BRCA1-deficient HCC1937 breast cancer cell line survival assay. BRCA1-deficient HCC1937 cells corrected with wild-type BRCA1 gene (BRCA1+; closed triangle), and with an empty vector (BRCA1-; closed circle) were examined. For each experiment (Figs 2–4), cell lines were treated with nine concentrations of (A) quinacrine, (B) mitoxantrone, and (C) doxorubicin in 96-well culture plates at 5x10^3 cell/well density. Each treatment point was made in sextuplicate. Treated cells were incubated for 72 hours at 37°C before assessing cell viability using PrestoBlue. Data were normalized to vehicle control. The experiment was repeated three times. Error bars indicate the standard deviation.
The HCC1937 cell line (a gift from Dr. Simon Powell Memorial Sloan Kettering (MSK), New York) was derived from a mammary gland primary ductal carcinoma at the early onset of a tumor. This TNBC patient carried a germline mutation in BRCA1, resulting in carboxy-terminal truncated protein and loss of the second BRCA1 allele. BRCA1-restored and empty vector cell lines were also obtained by transfection of a vector containing a full-length human BRCA1 cDNA or an empty vector, respectively. The HCC1937 cell lines were cultured as described.
as §1

Another experiment deals with γH2AX (DNA damage). Kind of experiment: Simple Western of γH2AX (DNA damage) after treatment. In kind it is cell-based, human. The settings on record: 72 h at doses near EC50. The procedure:
Fig 6 The effect of mitoxantrone treatment on RAD52 levels and DNA damage. […] Data and ANOVA statistical analyses are described in the material and methods section. Significance statistics are shown with single, double, or triple asterisks representing P<0.05, P<0.005, or P<0.0005, respectively.
For western analysis, each cell line was grown and treated as described above. Protein levels were measured in lysates by size separation with a ProteinSimple PeggySue instrument following the manufacturer’s recommendations. Lysates were prepared using the NanoPro Cell Lysis Kit with Bicine/CHAPS (ProteinSimple CBS403) at 0.75 mg/mL concentration when mixed with master mix (containing SDS, DTT and fluorescent molecular weight markers; ProteinSimple PS-FL01-8) and heated for 5 min at 95°C. Electrophoretic nanocapillary size separation of proteins was performed using default settings. After separation, UV light cross-linked proteins to the capillary wall. Capillaries were then washed and incubated with primary antibodies, washed, and incubated with anti-rabbit secondary antibody conjugated with HRP (ProteinSimple DM-001). Finally, luminol and peroxide were applied to generate chemoluminescence which was imaged by a CCD camera. Primary antibody concentrations were optimized and were diluted as follows: Abcam anti-RAD52 antibody (ab18263, diluted 1:25), R&D Systems Human Phospho-histone H2AX (S139) antibody (AF2288, diluted 1:100), and Cell Signalling Technology Pan-Actin antibody (#4968, diluted 1:2500).
The Simple western data were processed and analyzed with ProteinSimple Compass software. Peak areas were calculated using dropped lines. Each lysate was analyzed for RAD52 and γH2AX levels three times and for Actin two times (see S2 Fig). Replicate peak areas for RAD52 and γH2AX were averaged, divided by the average Actin peak area of that sample, multiplied by 100 and graphed using SigmaPlot 7.0.

By pEC50 is commonly meant the negative decadic logarithm of the EC50, by convention in mol/L. With `O=C1c2c(O)ccc(O)c2C(=O)c2c(NCCNCCO)ccc(NCCNCCO)c21` [Mitoxantrone, mitoxantrone], the values for the pEC50 in experiment [1] and in experiment [3] were 5.62 and 6.10, respectively. Also, the HR suppression in experiment [2] is listed as 40% ± 7%. Also, the “DNA damage (γH2AX) from treatment” value is “low to negligible levels of DNA damage” in the experiment on γH2AX (DNA damage) (HCC1937 cell lines), “substantial increase in DNA damage” with γH2AX (DNA damage) (PE01 cells) and “low to negligible levels of DNA damage” in the experiment with γH2AX (DNA damage) (UWB1 cell lines).
